Laboratory results published in patent US20190152957A1, “PYRIDIN-3-YL ACETIC ACID DERIVATIVES AS INHIBITORS OF HUMAN IMMUNODEFICIENCY VIRUS REPLICATION” (ViiV HEALTHCARE UK (NO.5) LIMITED, priority 2016, published 2019).
Like-named read-outs stand apart in the source and are kept apart here.

System: recombinant NL-RLuc virus (HIV NL4-3 with Renilla Luciferase gene) in MT-2 cells
Experiment: Inhibition of HIV replication (NL-RLuc virus, luciferase readout in MT-2 cells)
Format: cell-based
Conditions: MT2, 120 h
From the text: Inhibition of HIV Replication:
A recombinant NL-RLuc proviral clone was constructed in which a section of the nef gene from NL4-3 was replaced with the Renilla Luciferase gene. This virus is fully infectious and can undergo multiple cycles of replication in cell culture. In addition, the luciferous reporter provides a simple and easy method for quantitating the extent of virus growth and consequently, the antiviral activity of test compounds. The plasmid pNLRLuc contains the proviral NL-Rluc DNA cloned into pUC18 at the PvuII site. The NL-RLuc virus was prepared by transfection of 293T cells with the plasmid pNLRLuc. Transfections were performed using the LipofectAMINE PLUS kit from Invitrogen (Carlsbad, Calif.) according to the manufacturer and the virus generated was titered in MT-2 cells. For susceptibility analyses, the titrated virus was used to infect MT-2 cells in the presence of compound, and after 5 days of incubation, cells were processed and quantitated for virus growth by the amount of expressed luciferase. Assay media was RPMI 1640 supplemented with 10% heat inactivated fetal bovine serum (FBS), 100 units/ml penicillin G/100 units/ml streptomycin, 10 mM HEPES buffer pH 7.55 and 2 mM L-glutamine. The results from at least 2 experiments were used to calculate the EC50 values. Luciferase was quantitated using the Dual Luciferase kit from Promega (Madison, Wis.). Susceptibility of viruses to compounds was determined by incubation in the presence of serial dilutions of the compound. The 50% effective concentration (EC50) was calculated by using the exponential form of the median effect equation where (Fa)=1/[1+(ED50/drug conc.)^m](Johnson V A, Byington R T. Infectivity Assay. In Techniques in HIV Research. ed. Aldovini A, Walker BD. 71-76. New York: Stockton Press. 1990). Activity equal to A refers to a compound having an EC50≤100 nM, while B and C denote compounds having an EC50 between 100 nM and 1 uM (B) or >1 uM (C).

Row | Compound | EC50 (read-out: Activity) [µM] | EC50 (read-out: EC50 μM) [µM]
1 | CCc1ncc(CN2CCc3cc(-c4c(C)nc(C)c([C@H](OC(C)(C)C)C(=O)O)c4N4CCC(C)(C)CC4)ccc3C2)[nH]1 [Compound 21, (S)-2-(tert-butoxy)-2-(4-(4,4-dimethylpiperidin-1-yl)-5-(2-((2-ethyl-1H-imidazol-5-yl)methyl)-1,2,3,4-tetrahydroisoquinolin-6-yl)-2,6-dimethylpyridin-3-yl)acetic acid] | > 1 | 1.54
2 | CCn1cc(CN2CCc3cc(-c4c(C)nc(C)c([C@H](OC(C)(C)C)C(=O)O)c4N4CCC(C)(C)CC4)ccc3C2)c(C)n1 [Compound 22, (S)-2-(tert-butoxy)-2-(4-(4,4-dimethylpiperidin-1-yl)-5-(2-((1-ethyl-3-methyl-1H-pyrazol-4-yl)methyl)-1,2,3,4-tetrahydroisoquinolin-6-yl)-2,6-dimethylpyridin-3-yl)acetic acid] | < 0.1 | 
3 | Cc1noc(C)c1CN1CCc2cc(-c3c(C)nc(C)c([C@H](OC(C)(C)C)C(=O)O)c3N3CCC(C)(C)CC3)ccc2C1 [Compound 23, (S)-2-(tert-butoxy)-2-(5-(2-((3,5-dimethylisoxazol-4-yl)methyl)-1,2,3,4-tetrahydroisoquinolin-6-yl)-4-(4,4-dimethylpiperidin-1-yl)-2,6-dimethylpyridin-3-yl)acetic acid] | < 0.1 | 
4 | Cc1nc(C)c([C@H](OC(C)(C)C)C(=O)O)c(N2CCC(C)(C)CC2)c1-c1ccc2c(c1)CCN(Cc1nn(C)cc1Cl)C2 [Compound 24, (S)-2-(tert-butoxy)-2-(5-(2-((4-chloro-1-methyl-1H-pyrazol-3-yl)methyl)-1,2,3,4-tetrahydroisoquinolin-6-yl)-4-(4,4-dimethylpiperidin-1-yl)-2,6-dimethylpyridin-3-yl)acetic acid] | < 0.1 | 
5 | Cc1nc(C)c([C@H](OC(C)(C)C)C(=O)O)c(N2CCC(C)(C)CC2)c1-c1ccc2c(c1)CCN(Cc1cc(-c3ccccc3)on1)C2 [Compound 25, (S)-2-(tert-butoxy)-2-(4-(4,4-dimethylpiperidin-1-yl)-2,6-dimethyl-5-(2-((5-phenylisoxazol-3-yl)methyl)-1,2,3,4-tetrahydroisoquinolin-6-yl)pyridin-3-yl)acetic acid] | < 0.1 | 0.012
6 | Cc1nc(C)c([C@H](OC(C)(C)C)C(=O)O)c(N2CCC(C)(C)CC2)c1-c1ccc2c(c1)CCN(Cc1ccn[nH]1)C2 [Compound 26, (S)-2-(5-(2-((1H-pyrazol-5-yl)methyl)-1,2,3,4-tetrahydroisoquinolin-6-yl)-4-(4,4-dimethylpiperidin-1-yl)-2,6-dimethylpyridin-3-yl)-2-(tert-butoxy)acetic acid] | < 0.1 | 
7 | Cc1nc(C)c([C@H](OC(C)(C)C)C(=O)O)c(N2CCC(C)(C)CC2)c1-c1ccc2c(c1)CCN(Cc1c[nH]nn1)C2 [Compound 27, (S)-2-(5-(2-((1H-1,2,3-triazol-4-yl)methyl)-1,2,3,4-tetrahydroisoquinolin-6-yl)-4-(4,4-dimethylpiperidin-1-yl)-2,6-dimethylpyridin-3-yl)-2-(tert-butoxy)acetic acid] | 0.1 to 1 | 
8 | Cc1nc(C)c([C@H](OC(C)(C)C)C(=O)O)c(N2CCC(C)(C)CC2)c1-c1ccc2c(c1)CCN(Cc1ccnc(Cl)c1F)C2 [Compound 28, (S)-2-(tert-butoxy)-2-(5-(2-((2-chloro-3-fluoropyridin-4-yl)methyl)-1,2,3,4-tetrahydroisoquinolin-6-yl)-4-(4,4-dimethylpiperidin-1-yl)-2,6-dimethylpyridin-3-yl)acetic acid] | < 0.1 | 
9 | CCOc1ncccc1CN1CCc2cc(-c3c(C)nc(C)c([C@H](OC(C)(C)C)C(=O)O)c3N3CCC(C)(C)CC3)ccc2C1 [Compound 29, (S)-2-(tert-butoxy)-2-(4-(4,4-dimethylpiperidin-1-yl)-5-(2-((2-ethoxypyridin-3-yl)methyl)-1,2,3,4-tetrahydroisoquinolin-6-yl)-2,6-dimethylpyridin-3-yl)acetic acid] | < 0.1 | 
10 | COc1cccc(CN2CCc3cc(-c4c(C)nc(C)c([C@H](OC(C)(C)C)C(=O)O)c4N4CCC(C)(C)CC4)ccc3C2)n1 [Compound 30, (S)-2-(tert-butoxy)-2-(4-(4,4-dimethylpiperidin-1-yl)-5-(2-((6-methoxypyridin-2-yl)methyl)-1,2,3,4-tetrahydroisoquinolin-6-yl)-2,6-dimethylpyridin-3-yl)acetic acid] | < 0.1 | 
11 | COc1cc(CN2CCc3cc(-c4c(C)nc(C)c([C@H](OC(C)(C)C)C(=O)O)c4N4CCC(C)(C)CC4)ccc3C2)ccn1 [Compound 31, (S)-2-(tert-butoxy)-2-(4-(4,4-dimethylpiperidin-1-yl)-5-(2-((2-methoxypyridin-4-yl)methyl)-1,2,3,4-tetrahydroisoquinolin-6-yl)-2,6-dimethylpyridin-3-yl)acetic acid] | < 0.1 | 
12 | Cc1nc(C)c([C@H](OC(C)(C)C)C(=O)O)c(N2CCC(C)(C)CC2)c1-c1ccc2c(c1)CCN(Cc1ccc(Cl)nc1Cl)C2 [Compound 32, (S)-2-(tert-butoxy)-2-(5-(2-((2,6-dichloropyridin-3-yl)methyl)-1,2,3,4-tetrahydroisoquinolin-6-yl)-4-(4,4-dimethylpiperidin-1-yl)-2,6-dimethylpyridin-3-yl)acetic acid] | < 0.1 | 
13 | COc1ncc(CN2CCc3cc(-c4c(C)nc(C)c([C@H](OC(C)(C)C)C(=O)O)c4N4CCC(C)(C)CC4)ccc3C2)cn1 [Compound 33, (S)-2-(tert-butoxy)-2-(4-(4,4-dimethylpiperidin-1-yl)-5-(2-((2-methoxypyrimidin-5-yl)methyl)-1,2,3,4-tetrahydroisoquinolin-6-yl)-2,6-dimethylpyridin-3-yl)acetic acid] | < 0.1 | 0.008
14 | Cc1nc(C)c([C@H](OC(C)(C)C)C(=O)O)c(N2CCC(C)(C)CC2)c1-c1ccc2c(c1)CCN(Cc1ccc(C(F)(F)F)nc1)C2 [Compound 34, (S)-2-(tert-butoxy)-2-(4-(4,4-dimethylpiperidin-1-yl)-2,6-dimethyl-5-(2-((6-(trifluoromethyl)pyridin-3-yl)methyl)-1,2,3,4-tetrahydroisoquinolin-6-yl)pyridin-3-yl)acetic acid] | < 0.1 | 
15 | COc1ncccc1CN1CCc2cc(-c3c(C)nc(C)c([C@H](OC(C)(C)C)C(=O)O)c3N3CCC(C)(C)CC3)ccc2C1 [Compound 35, (S)-2-(tert-butoxy)-2-(4-(4,4-dimethylpiperidin-1-yl)-5-(2-((2-methoxypyridin-3-yl)methyl)-1,2,3,4-tetrahydroisoquinolin-6-yl)-2,6-dimethylpyridin-3-yl)acetic acid] | < 0.1 | 
16 | Cc1nc(C)c([C@H](OC(C)(C)C)C(=O)O)c(N2CCC(C)(C)CC2)c1-c1ccc2c(c1)CCN(Cc1cccnn1)C2 [Compound 36, (S)-2-(tert-butoxy)-2-(4-(4,4-dimethylpiperidin-1-yl)-2,6-dimethyl-5-(2-(pyridazin-3-ylmethyl)-1,2,3,4-tetrahydroisoquinolin-6-yl)pyridin-3-yl)acetic acid] | < 0.1 | 
17 | Cc1nc(C)c([C@H](OC(C)(C)C)C(=O)O)c(N2CCC(C)(C)CC2)c1-c1ccc2c(c1)CCN(Cc1ncco1)C2 [Compound 37, (S)-2-(tert-butoxy)-2-(4-(4,4-dimethylpiperidin-1-yl)-2,6-dimethyl-5-(2-(oxazol-2-ylmethyl)-1,2,3,4-tetrahydroisoquinolin-6-yl)pyridin-3-yl)acetic acid] | < 0.1 | 
18 | Cc1nc(C)c([C@H](OC(C)(C)C)C(=O)O)c(N2CCC(C)(C)CC2)c1-c1ccc2c(c1)CCN(Cc1nccn1C)C2 [Compound 38, (S)-2-(tert-butoxy)-2-(4-(4,4-dimethylpiperidin-1-yl)-2,6-dimethyl-5-(2-((1-methyl-1H-imidazol-2-yl)methyl)-1,2,3,4-tetrahydroisoquinolin-6-yl)pyridin-3-yl)acetic acid] | < 0.1 | 
19 | Cc1nc[nH]c1CN1CCc2cc(-c3c(C)nc(C)c([C@H](OC(C)(C)C)C(=O)O)c3N3CCC(C)(C)CC3)ccc2C1 [Compound 39, (S)-2-(tert-butoxy)-2-(4-(4,4-dimethylpiperidin-1-yl)-2,6-dimethyl-5-(2-((4-methyl-1H-imidazol-5-yl)methyl)-1,2,3,4-tetrahydroisoquinolin-6-yl)pyridin-3-yl)acetic acid] | 0.1 to 1 | 0.231
20 | Cc1nc(C)c([C@H](OC(C)(C)C)C(=O)O)c(N2CCC(C)(C)CC2)c1-c1ccc2c(c1)CCN(Cc1c[nH]cn1)C2 [Compound 40, (S)-2-(5-(2-((1H-imidazol-4-yl)methyl)-1,2,3,4-tetrahydroisoquinolin-6-yl)-4-(4,4-dimethylpiperidin-1-yl)-2,6-dimethylpyridin-3-yl)-2-(tert-butoxy)acetic acid] | > 1 | 
